Starred links: 1 amine or outer side, 2 acyl side, 3 side chain; linkers in the order of their positions; H or OH if unused. Positions of bridges follow the written chain, without caps; N, C: chain ends. Non-standard residues stand in square brackets, D forms with d. Residues, ends and D or L forms follow the SMILES beside them. *: point of attachment. hTyr(3S-OH,4S-OH,3'-OSO3H) = N[C@H](C(=O)O)[C@H](O)[C@@H](O)c1ccc(O)c(OS(=O)(=O)O)c1; Orn(4R-OH,5R-OH) = O=C([C@H](C[C@@H](O)[C@@H](O)N[*:3])N[*:1])[*:2]; Pro(3S-OH,4S-Me) = C[C@H]1CN[C@H](C(=O)O)[C@H]1O; X1 = CCCCCOc1ccc(-c2cc(-c3ccc(C(=O)*)cc3)no2)cc1; Gln(3R-OH) = NC(=O)C[C@@H](O)[C@H](N)C(=O)O; Hyp = O=C(O)[C@@H]1C[C@@H](O)CN1

The test system of data set [1] is C. krusei. In words: MIC of micafungin for the patient's C. krusei. The data set is classed as cell-based, Candida krusei. To be noted: isolate of the patient.
The nature of data set [2]: Micafungin concentration in serum of the patient. The data set is classed as in vivo, human. The conditions noted are these: one patient, single measurement. On the procedure:
C. krusei has been identified with the use of CHROMagar™ with subsequent identification by Maldi-TOF, with database MALDI BDAL Database version 8.0. Micafungin concentrations were measured (laboratory of pharmacy, University Hospital Nijmegen, the Netherlands) in serum and joint fluid. The concentrations in […] and concentration in synovial fluid 24 hours after installation of 3mg of micafungin in the knee was 11mg/L at day 19, as well presented in Table 1. Reference concentrations of micafungin in serum derived from 2 studies in critically ill patients trough level 1.4–3.1 mg/L were described. […] Administration of 100mg once daily results in trough serum concentration levels of 2 mg-L [14]. In hematology patients reference concentrations after intravenous micafungin are available as well [15].

The conditions of data set [3]: critically ill patients, 2 studies; cited from earlier work.
The nature of data set [4]: Local toxicity in the knee joint after intra-articular micafungin. The data set is classed as in vivo, human. To be noted: one patient; intra-articular instillation, local concentration 11mg/l.
The nature of data set [5]: Micafungin concentration in joint (synovial) fluid of the patient after intra-articular instillation. The data set is classed as in vivo, human. The conditions noted are these: one patient; day 19; joint fluid aspirated 24 hours after intra-articular instillation of 3mg micafungin (trough); IA 3mg OD day 17 – day 24; single measurement. The procedure:
C. krusei has been identified with the use of CHROMagar™ with subsequent identification by Maldi-TOF, with database MALDI BDAL Database version 8.0. Micafungin concentrations were measured (laboratory of pharmacy, University Hospital Nijmegen, the Netherlands) in serum and joint fluid. The concentrations in serum 12 hours after the administration of 100mg intravenously at day 13 and 16 of therapy were 4.5 and 1.5mg/L respectively and concentration in synovial fluid 24 hours after installation of 3mg of micafungin in the knee was 11mg/L at day 19, as well presented in Table 1. Reference concentrations of micafungin in serum derived from 2 studies in critically ill patients trough level 1.4–3.1 mg/L were described. […] Administration of 100mg once daily results in trough serum concentration levels of 2 mg-L [14]. In hematology patients reference concentrations after intravenous micafungin are available as well [15].

The test system of data set [6] is C. krusei knee arthritis. In words: Clinical outcome of C. krusei knee arthritis. The data set is classed as in vivo, human. To be noted: one patient; instillation of micafungin in the knee plus intravenous micafungin and arthroscopic debridement. The source says: A week later, the patient was readmitted for a second course of chemotherapy and amphotericin-B oral solution was given to prevent a new episode of translocation of C. krusei. During this hospital stay they hit their left knee on the side of the bed. Their knee continued to be painful and as a knee effusion was noted three days after injury, the orthopedic surgeon was consulted. On physical examination a large effusion of their left knee was found. The joint was not visibly red, but was warm on palpation. Their temperature was 38.4° Celsius. A plain knee radiograph of the knee was normal. An aspiration of the affected knee was performed and the joint fluid was sent for culture, this day was considered as day 0. Day 1 the joint aspiration grew C. krusei for which intravenous micafungin was restarted at a dose of 100mg twice daily. As the patient was deeply thrombopenic as well as neutropenic at that time, no arthroscopic drainage and lavage was performed but instead the knee was repeatedly drained by needle aspiration. On the day of the first needle aspiration of the knee and for the next 10 days, blood cultures were positive for C. krusei as well. Furthermore, repeated needle aspirations of the knee continued to grow C. krusei. An echocardiography at day 6 was normal. […]

For data set [7] the following is noted: healthy subjects; cited from earlier work.
The conditions of data set [8]: reconstitution in NaCl 0.9%; cited from earlier work. The text has this:
Synovial fluid is a transudate of plasma, so dissolution of micafungin in synovial fluid will be likely. Moreover, diffusion from plasma to the synovial fluid will occur. Unfortunately, data about the extent of diffusion from plasma to the synovial fluid are not available. The possible side effects as well as the possible toxic effects on cartilage of micafungin when administered directly into a joint are unknown. However, we decided to administer micafungin through direct intra-articular instillation as, despite prolonged high-dose intravenous micafungin therapy, blood as well as synovial cul ...

On to `CCCCCOc1ccc(-c2cc(-c3ccc(C(=O)N[C@H]4C[C@@H](O)[C@@H](O)NC(=O)[C@@H]5[C@@H](O)[C@@H](C)CN5C(=O)[C@H]([C@H](O)CC(N)=O)NC(=O)[C@H]([C@H](O)[C@@H](O)c5ccc(O)c(OS(=O)(=O)O)c5)NC(=O)[C@@H]5C[C@@H](O)CN5C(=O)[C@H]([C@@H](C)O)NC4=O)cc3)no2)cc1` [micafungin] (X1-[Orn(4R-OH,5R-OH)]T[Hyp][hTyr(3S-OH,4S-OH,3'-OSO3H)][Gln(3R-OH)][Pro(3S-OH,4S-Me)]; lactam 1-C), for which, in data set [1], the “MIC of the C. krusei” value was 0.125 mg/L. The “Micafungin concentration in serum” value in data set [2] (12 hours after administration of 100mg intravenously, day 16 of therapy) is listed as 1.5 mg/L. In addition, the “Micafungin concentration (trough serum)” value in data set [2] (day 14, IV 100mg BID day 1 – day 15) came to 4.5 mg/L. Besides, the “Micafungin concentration (trough serum)” value in data set [2] (day 17 (day of surgery), IV 200mg OD day 16 – day 32) amounted to 1.5 mg/L. Moreover, the “Reference concentration of micafungin in serum, trough level” value in data set [3] is 1.4 to 3.1 mg/L. Further, the “Local toxicity of the joint” value in data set [4] is “no local toxicity was observed”. For the same compound, the “Micafungin concentration in synovial fluid (joint)” value in data set [5] worked out at 11 mg/L. Further, the Clinical outcome in data set [6] is “completely recovered”. Also, in data set [7], the Half-life is 15 h and the Volume of distribution was 0,2 L/kg. Also, the pH after reconstitution in data set [8] was 5–7.
